From patent US20180194805A1, “USE OF PENTAPEPTIDE-3 KTTKS OR HEXAPEPTIDE-3 KTTKSF FOR TREATING DEGENERATIVE JOINT DISEASE” (Advanced Healthtech Biopeptide Laboratories Co., LTD., priority 2017, published 2018)
Entries after “also recorded” stand apart in the source; their conditions may differ.

Legend:
[1] = tested on: NO, SOD and MDA in synovial liquid; experiment: Biochemical indicators (NO, SOD, MDA) in synovial liquid of the rabbit model; format: in vivo, New Zealand white rabbits
Text: As used in the present invention, all of the methods for measuring SOD, NO and MDA in synovial liquid and collagen and proteoglycan in extracellular matrix of cartilage have been known and conventionally used in the art.
(§1) Fifteen (15) healthy adult New Zealand white rabbits were randomly divided into three (3) groups: a normal control group (Group A), a model control group (Group B) and a test group subject to intra-articular injection of a test peptide (Group C), with five (5) rabbits included in each of the groups. Fasting was conducted within four hours before surgical operations. Ketamine (10 mg/kg) and atropine (0.2 mg/kg) were injected in the muscle of each rabbit. After anesthesia took effect, each rabbit was confined to an operating table. An 8 cm-long longitudinal scission was made in the back of each knee before the skin was lifted. From the back of the knee, the articular capsule and synovial were opened. Then, the knee was bent for 90° to expose the cartilage at a lower end of the femur. Two cylindrical cutouts of 3 mm in diameter and 3 mm in depth were made. Coagulation was removed from each of the cutouts. The joint cavity was washed with a sterile saline solution. Stitches were made for each section. After the surgical operation, injection of penicillin was conducted against infection for a week. After five (5) days, each rabbit was able to eat and stand normally.
(§2) Two (2) weeks after the surgical operation, the rabbits of Group A and Group B were not treated, whereas the rabbits of Group C were subject to intra-articular injection of 250 ppm/kg of pentapeptide-3 KTTKS once for every seven (7) days, and the injection lasted for twelve (12) weeks. Articular injection of 0.5 ml of saline was executed, and then 0.2 ml of synovial liquid was collected. The articular capsule was cut and opened, synovial was removed, and an entire tibial joint was taken. Arthropathy in arthrodial cartilage was observed by bare eyes and also via surgical lens. Slices were taken, dyed by hematoxylin and eosin stain (HE Stain) and toluidine blue, and then observed in an optical microscope.

[2] = tested on: arthrodial cartilage of the knee joint; experiment: Rabbit knee cartilage injury model: observation by bare eyes and histomorphometry; format: in vivo, New Zealand white rabbits; conditions: intra-articular 250 ppm/kg once every 7 days
Experimental: as §1, §2

[3] = tested on: cartilage cells of the growth plate; experiment: Cultivated cartilage cells: DNA content, collagen and proteoglycan production; format: cell-based, rabbits; conditions: 250 ppm; samples after 3, 7 and 14 days
Experimental: Firstly, cartilage cells of the growth plate of the same rabbits were taken and continuously cultivated. The cultivated cells were divided into three groups. In Group I, only 250 ppm of pentapeptide-3 KTTKS was added. In Group II, only 100 ng/ml of collagen was added. In Group III, 250 ppm of pentapeptide-3 KTTKS and 100 ng/ml of collagen were added. A negative control group was also used. After new tissues of cartilage grew at a lower portion of a centrifuge tube, the new tissues were transferred to a 24-well platefor continuing cultivation, wherein the culture medium was replaced for every 2 days. During the cultivation, samples were collected after three (3), seven (7) and fourteen (14) days, and then were analyzed.
For the histological and histochemical measurements, samples were collected, and HE dying and immunochemical measurement (S-P method) were executed.
The content of DNA in the cells of cartilage was determined by the method of Hoechst 33258.
Extracellular matrix of cartilage primarily comprises collagen and proteoglycan composed of glycosaminoglycan and core protein, in addition to water. The content of the matrix and its status of the metabolism were quantitatively analyzed by determining a level of the collagen and proteoglycan in the new tissues of cartilage.
The synthesis of the collagen of the cartilage is measured by the hydroxyproline method. Because the content of hydroxyproline in the collagen was substantially constant (about 10% by weight), an amount of hydroxyproline could be used to analyze the amount of the collagen of the cartilage by using a commercial kit including the hydroxyproline reagent. The content of the collagen in the samples was calculated.

[4] = Group C: intra-articular injection of 250 ppm/kg once every 7 days for 12 weeks
[5] = intra-articular 250 ppm/kg once every 7 days, 12 weeks

In the case of “pentapeptide-3 KTTKS (printed: Lys-Thr-Thr-Lys-Ser) [pentapeptide Lys-Thr-Thr-Lys-Ser; test peptide injected intra-articularly in Group C]”, the “MDA level in synovial liquid” value [1, 4] is reported as 15.23 ± 5.62 c/mol · L^−1, the “NO level in synovial liquid” value [1, 4] is reported as 25.11 ± 3.65 c/mol · L^−1 and the “SOD level in synovial liquid” value [1, 4] is reported as 6.18 ± 2.17 c/mol · L^−1. For the same substance, the “Change of MDA level in synovial liquid compared with model control Group B” value [1, 5] was “considerably reduced”, the “Change of SOD level in synovial liquid compared with model control Group B” value [1, 5] was “considerably increased” and the “Histomorphometric observation of repaired tissues (HE stain, toluidine blue)” value ([2]; after 12 weeks) was “the repaired tissues were not substantially different from the normal tissues of the knee joint; also recorded: considerably repaired the damaged tissues of cartilage”. For the same substance, the “Repair of knee joint injuries observed by bare eyes” value ([2]; after 12 weeks) was “the injuries were completely repaired”, the “Morphosis of the arthrodial cartilage compared with model control Group B” value ([2]; 12 weeks) was “significant improvement” and the “Content of DNA of the cells of the cartilage versus control group (Hoechst 33258, FIG. 1)” value [3] was “statistically different from that of the control group”. The “Hyperosteogeny of the cells of the cartilage” value [3] was “considerable hyperosteogeny”, the “Production of collagen in cartilage tissue (hydroxyproline method, FIG. 2)” value [3] was “considerably increased” and the “Production of proteoglycan of cartilage tissue (FIG. 3)” value [3] was “considerably increased”.
